The values that follow come from US20180118721A1, “PYRIMIDINE DERIVATIVES” (Merck Patent GmbH, priority 2015, published 2018).

For this assay, the target named is T1, purified human recombinant MTH1 (human MTH1, residues 42-197) (Homo sapiens, UniProt P36639).
T1 construct: human MTH1, residues 42-197, Uniprot-ID: P36639, expressed in E. coli; made in house; host or cells: E. coli
In words: MTH1 enzymatic assay (luminescence-based, PPiLight). It is filed as biochemical. The following applies: 6 μM 8-oxo-dGTP, Table 1, grouped. On the procedure: The IC50 value was determined by a MTH1 enzymatic assay. The assay comprises the principal steps of incubating a mixture of MTH1, the compound in question at different concentrations and 8-oxo-2′-deoxyguanosine-5′-triphosphate (8-oxo-dGTP) in assay buffer. Nucleotide triphosphate hydrolysis by MTH1, i.e. decomposition of 8-oxo-2′-deoxyguanosine-5′-triphosphate, produces 8-oxo-2′-deoxyguanosine-5′-monophosphate (8-oxo-dGMP) and pyrophosphate (PPi). The amount of generated pyrophosphate (PPi) is then measured by a bioluminescent reaction. In detail: The MTH1 (human mutT homologue 1) enzymatic assay is performed as a luminescence-based 384-well assay. […] The assay buffer contains 100 mM Tris-acetate pH 7.5, 40 mM NaCl, 10 mM Mg(OAc)2, 0.005% Tween 20 and 2 mM dithiothreitol (DTT). […] Then, in a second step, the substrate 8-oxo-dGTP is added and the reaction mixture is incubated for 30 minutes at 22° C. The pharmacologically relevant assay volume is 5 PI. The final concentrations in the assay during incubation of the reaction mixture are 0.1-0.2 nM, typically 0.1 nM, MTH1 and 6 μM 8-oxo-dGTP. After incubation of the reaction mixture, the generation of pyrophosphate (PPi) as a result of nucleotide triphosphate (8-oxo-dGTP) hydrolysis by MTH1 is detected using the PPiLight inorganic pyrophosphate assay kit (Lonza) (third step). 2 to 5 μl, such as 3 to 5 μl, typically 3 or 4 μl, for instance 4 μl, of a 1:1 mixture of PPiLight converting reagent (AMP) and PPiLight detection reagent are added to the reaction mixture. In the presence of pyrophosphate, the detection reagent catalyzes the conversion of AMP to ATP. Luciferase then produces light from the newly formed ATP and luciferin. The amount of light produced is directly proportional to the amount of PPi in the sample. Following signal development for 1 h the plates are analysed in an EnVision (PerkinElmer) microplate reader using the ultra sensitive luminescence option. Data are processed employing the Genedata Screener software. In particular, IC50 values are determined in the usual manner (using the Hill Equation) by fitting a dose-response curve to the data points using nonlinear regression analysis.
Hill Equation: Y=S0+(Sinf−S0)/(1+(10^logIC50/10^c)^n); Y: luminescence signal (response), S0: activity level at zero concentration of test compound, Sinf=activity level at infinite concentration, Hill coefficient n=measure of the slope at IC50, c=concentration in logarithmic units corresponding to the values on the x-axis of the dose response curve plot
On to `Nc1nc(NC2CC2)cc(N2CC[C@](O)(c3ccccc3)C2)n1` (single isomer, unassigned) [Example 37], for which the half-inhibitory concentration (IC50) (as a rule, the concentration that inhibits the measured activity by half) is 1 to 100 nM. With `Nc1nc(NC2CC2)cc(N2CC[C@@](O)(c3ccccc3)C2)n1` (single isomer, unassigned) [Example 38], the IC50 is 1 to 100 nM.

In the case of `CNc1cc(N2CCC[C@@](O)(c3ccccc3)C2)nc(N)n1` (single isomer, unassigned) [Example 90], the half-inhibitory concentration (IC50) was 1 to 100 nM. The same measure for `CNc1cc(N2CCCCC2Cc2ccccc2OC)nc(N)n1` (single isomer, unassigned) [Example 106]: less than 1 nM; for `CNc1cc(N2CCC(CO)C2)nc(N)n1` (stereo not drawn) [Example 1, [1-(2-amino-6-methylamino-pyrimidin-4-yl)-pyrrolidin-3-yl]-methanol]: less than 1 nM; for `Nc1nc(NC2CC2)cc(N2CCC(CO)C2)n1` (stereo not drawn) [Example 2, [1-(2-amino-6-cyclopropyl amino-pyrimidin-4-yl)-pyrrolidin-3-yl]-methanol]: less than 1 nM. As to `Nc1nc(NC2CC2)cc(N2CCC(F)(F)C2)n1` [Example 4, N^4-cyclopropyl-6-(3,3-difluoro-pyrrolidin-1-yl)-pyrimidine-2,4-diamine], the IC50 is 1 to 100 nM. In the case of `Nc1nc(NC2CC2)cc(N2CCC(O)C2)n1` (stereo not drawn) [Example 6, 1-(2-amino-6-cyclopropylamino-pyrimidin-4-yl)-pyrrolidin-3-ol], the IC50 fell in the range of 1 to 100 nM. The same measure for `CNc1cc(N2CCC(OC)C2)nc(N)n1` (stereo not drawn) [Example 9, 86-(3-methoxy-pyrrolidin-1-yl)-N^4-methyl-pyrimidine-2,4-diamine-formate]: less than 1 nM; for `COC1CCN(c2cc(NC3CC3)nc(N)n2)C1` (stereo not drawn) [Example 10, N^4-cyclopropyl-6-(3-methoxy-pyrrolidin-1-yl)-pyri midine-2,4-diamine-formate]: 1 to 100 nM; for `Nc1nc(NC2CC2)cc(N2CCC[C@@H]2CO)n1` [Example 11, [(R)-1-(2-amino-6-cyclopropylamino-pyrimidin-4-yl)-pyrrolidin-2-yl]-methanol-formate]: 1 to 100 nM.

With `CNc1cc(N2CCC[C@H]2CO)nc(N)n1` [Example 12, [(S)-1-(2-amino-6-methylamino-pyrimidin-4-yl)-pyrrolidin-2-yl]-methanol], the concentration for half-maximal inhibition (IC50) fell in the range of 1 to 100 nM. With `Nc1nc(NC2CC2)cc(N2CCC[C@H]2CO)n1` [Example 13, [(S)-1-(2-amino-6-cyclopropylamino-pyrimidin-4-yl)-pyrrolidin-2-yl]-methanol], the IC50 lay within 1 to 100 nM. The same measure for `Nc1nc(NC2CC2)cc(N2CCCC2Cc2ccccc2Cl)n1` (stereo not drawn) [Example 36, 6-[2-(2-Chloro-benzyl)-pyrrolidin-1-yl]-N4-cyclopropyl-pyrimidine-2,4-diamine]: less than 1 nM; for `CC1CCN(c2cc(NC3CC3)nc(N)n2)C1C` (stereo not drawn) [Example 39, N4-Cyclopropyl-6-(2,3-dimethyl-pyrrolidin-1-yl)-pyrimidine-2,4-diamine]: 1 to 100 nM. The same measure for `CCC1(O)CCN(c2cc(NC3CC3)nc(N)n2)C1` (stereo not drawn) [Example 40, 1-(2-Amino-6-cyclopropylamino-pyrimidin-4-yl)-3-ethyl-pyrrolidin-3-ol]: 1 to 100 nM; for `CC1C(c2ccccc2)CCN1c1cc(NC2CC2)nc(N)n1` (stereo not drawn) [Example 41, N4-Cyclopropyl-6-(2-methyl-3-phenyl-pyrrolidin-1-yl)-pyrimidine-2,4-diamine]: 1 to 100 nM. Regarding `Nc1nc(NC2CC2)cc(N2CCC(O)(C(F)(F)F)C2)n1` (stereo not drawn) [Example 42, 1-(2-Amino-6-cyclopropylamino-pyrimidin-4-yl)-3-trifluoromethyl-pyrrolidin-3-ol], the half-maximal inhibitory concentration (IC50) is 1 to 100 nM.

For the compound `NC(=O)[C@@H]1CCN(c2cc(NC3CC3)nc(N)n2)C1` [Example 59, (R)-1-(2-Amino-6-cyclopropylamino-pyrimidin-4-yl)-pyrrolidine-3-carboxylic acid amide], the IC50 fell in the range of 1 to 100 nM.

With `CNc1cc(N2CC[C@@H](O)C2)nc(N)n1` [Example 60, (R)-1-(2-Amino-6-methylamino-pyrimidin-4-yl)-pyrrolidin-3-ol], the IC50 is 1 to 100 nM. The same measure for `NC(=O)[C@H]1CCN(c2cc(NC3CC3)nc(N)n2)C1` [Example 61, (S)-1-(2-Amino-6-cyclopropylamino-pyrimidin-4-yl)-pyrrolidine-3-carboxylic acid amide]: 1 to 100 nM.

On to `CNc1cc(N2CC[C@@H](CO)C2)nc(N)n1` [Example 64, [(R)-1-(2-Amino-6-methylamino-pyrimidin-4-yl)-pyrrolidin-3-yl]-methanol], for which the 50% inhibitory concentration (IC50) is less than 1 nM. `CNc1cc(N2CC[C@H](CO)C2)nc(N)n1` [Example 65, [(S)-1-(2-Amino-6-methylamino-pyrimidin-4-yl)-pyrrolidin-3-yl]-methanol]: the 50% inhibitory concentration (IC50) is less than 1 nM. In the case of `Nc1nc(NC2CC2)cc(N2CC[C@@H](CO)C2)n1` [Example 66, [(R)-1-(2-Amino-6-cyclopropylamino-pyrimidin-4-yl)-pyrrolidin-3-yl]-methanol], the IC50 was less than 1 nM.

With `Nc1nc(NC2CC2)cc(N2CC[C@H](CO)C2)n1` [Example 67, [(S)-1-(2-Amino-6-cyclopropylamino-pyrimidin-4-yl)-pyrrolidin-3-yl]-methanol], the IC50 fell in the range of 1 to 100 nM.

With `CCNc1cc(N2CCC(F)(F)C2)nc(N)n1` [Example 68, 6-(3,3-Difluoro-pyrrolidin-1-yl)-N4-ethyl-pyrimidine-2,4-diamine], the IC50 lay in the range of 1 to 100 nM. With `CC(C)Nc1cc(N2CCC(F)(F)C2)nc(N)n1` [Example 69, 6-(3,3-Difluoro-pyrrolidin-1-yl)-N4-isopropyl-pyrimidine-2,4-diamine] the figure was 1 to 100 nM; with `Nc1nc2c(c(N3CC[C@@H](O)C3)n1)CCCN2` [Example 70, (R)-1-(2-Amino-5,6,7,8-tetrahydro-pyrido[2,3-d]pyrimidin-4-yl)-pyrrolidin-3-ol], less than 1 nM; with `Nc1nc(NCC2CC2)cc(N2CCC(F)(F)C2)n1` [Example 71, N4-Cyclopropylmethyl-6-(3,3-difluoro-pyrrolidin-1-yl)-pyrimidine-2,4-diamine], 1 to 100 nM.

Consider `CCCNc1cc(N2CCC(F)(F)C2)nc(N)n1` [Example 72, 6-(3,3-Difluoro-pyrrolidin-1-yl)-N4-propyl-pyrimidine-2,4-diamine], for which the 50% inhibitory concentration (IC50) lay in the range of 1 to 100 nM.

Regarding `Nc1nc2c(c(N3CC[C@H](O)C3)n1)CCCN2` [Example 73, (S)-1-(2-Amino-5,6,7,8-tetrahydro-pyrido[2,3-d]pyrimidin-4-yl)-pyrrolidin-3-ol-formiate], the IC50 is 1 to 100 nM. For `FC1(F)CCN(c2ncnc3c2CCCN3)C1` [Example 74, 4-(3,3-Difluoro-pyrrolidin-1-yl)-5,6,7,8-tetrahydro-pyrido[2,3-d]pyrimidine], the IC50 was more than 100 nM.

In the case of `NC(=O)[C@@H]1CCN(c2nc(N)nc3c2CCCN3)C1` [Example 75, (R)-1-(2-Amino-5,6,7,8-tetrahydro-pyrido[2,3-d]pyrimidin-4-yl)-pyrrolidine-3-carboxylic acid amide-trifluoroacetate], the IC50 is more than 100 nM. With `CNc1cc(N2CCCC(O)(c3ccccc3)C2)nc(N)n1` (stereo not drawn) [Example 79, 1-(2-Amino-6-methylamino-pyrimidin-4-yl)-3-phenyl-piperidin-3-ol], the half-inhibitory concentration (IC50) fell in the range of 1 to 100 nM. For the compound `Nc1nc(NC2CC2)cc(N2CCCC2C(=O)O)n1` (stereo not drawn) [Example 80, 1-(2-Amino-6-cyclopropylamino-pyrimidin-4-yl)-pyrrolidine-2-carboxylic acid], the IC50 was more than 100 nM. Regarding `CNc1cc(N2CCCC2Cc2ccccc2OC)nc(N)n1` (stereo not drawn) [Example 82, 6-[2-(2-Methoxy-benzyl)-pyrrolidin-1-yl]-N4-methyl-pyrimidine-2,4-diamine], the half-inhibitory concentration (IC50) was less than 1 nM. On to `CNc1cc(N2CCCC2C(C)(C)c2ccccc2)nc(N)n1` (stereo not drawn) [Example 83, N4-Methyl-6-[2-(1-methyl-1-phenylethyl)-pyrrolidin-1-yl]-pyrimidine-2,4-diamine], for which the IC50 was less than 1 nM. In the case of `CNc1cc(N2CCCC2Cc2ccccc2C)nc(N)n1` (stereo not drawn) [Example 89, N4-Methyl-6-[2-(2-methyl-benzyl)-pyrrolidin-1-yl]-pyrimidine-2,4-diamine], the IC50 was less than 1 nM.

Regarding `CNc1cc(N2CCC[C@@H]2Cc2ccccc2OC)nc(N)n1` [Example 93, 6-[(R)-2-(2-Methoxy-benzyl)-pyrrolidin-1-yl]-N4-methyl-pyrimidine-2,4-diamine], the half-inhibitory concentration (IC50) was less than 1 nM.
